From patent US20240180888A1, “C5AR1 INHIBITORS FOR TREATING […] REACTIONS TO TAXANES” (Dompe' Farmaceutici SPA, priority 2021, published 2024)
Where two headings read alike, the source gives them in different places.

Key:
F11 hybridoma cells = assay: Real Time PCR for IL-8 mRNA expression in differentiated F11 cells; assay type: cell-based; conditions: 20 h; 10 nM Paclitaxel or 50 nM C5a
Experimental: F11 hybridoma cells (ECACC 08062601), chosen as an alternative model of DRG neurons were cultured in DMEM medium (Euroclone, MI, Italy) supplemented with 10% FBS (Sigma-Aldrich St. Louis, CO, USA), 1% penicillin/streptomycin (Euroclone) and 1% glutamine (Euroclone) at 37° C., in a humidified 95% air-5% CO2 atmosphere. For the experiments, cells were used at 18th passage and seeded at 1×10^4 cells/cm2. After 24 h, cells were differentiated with rat NGF (rNGF) (Sigma). rNGF was dissolved in DMEM with 1% penicillin/streptomycin and 1% glutamine (FBS free) at the final concentration 50 ng/ml. The medium was replaced every 3 days until complete differentiation, which happened after 7 days. […]
For gene expression analysis, the following protocol was used: total RNA was extracted by Trizol reagent, according to the manufacturer's instructions. The total RNA concentration was determined spectrophotometrically in RNAase-free water, and 1 μg aliquots of total RNA were reverse-transcripted into cDNA using ProtoScript First Strand cDNA Synthesis Kit (NEB). […] Relative expression levels were calculated for each sample after normalization against reference gene, using the ΔΔCt method for comparing relative fold expression differences, as previously described [Livak et al., 2001 DOI: 10.1006/meth.2001.1262]. […]

[1] = molecular target: T1, complement component 5a receptor 1 (C5aR1) (Homo sapiens, UniProt P21730); assay: BIAcore SPR binding to C5aR1 immobilised on sensorchip CM5 via c-Myc-tag
T1 construct: purchased OriGene TP303784
T1 sequence (P21730 1-350): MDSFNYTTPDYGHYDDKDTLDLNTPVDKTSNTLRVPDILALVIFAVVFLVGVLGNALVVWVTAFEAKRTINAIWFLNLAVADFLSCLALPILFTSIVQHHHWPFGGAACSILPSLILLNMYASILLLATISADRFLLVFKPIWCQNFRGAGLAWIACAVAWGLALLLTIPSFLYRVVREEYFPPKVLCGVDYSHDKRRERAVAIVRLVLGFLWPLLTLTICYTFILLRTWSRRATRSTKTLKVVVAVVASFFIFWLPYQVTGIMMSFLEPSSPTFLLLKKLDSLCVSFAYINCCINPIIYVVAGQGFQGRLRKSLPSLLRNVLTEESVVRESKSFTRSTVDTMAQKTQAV
Text: BIAcore technology was used to analyze the interaction between Paclitaxel and complement component 5a receptor 1 (C5aR1) (Example 1), complement component 5a receptor 2 (C5AR2) (Example 2) or complement component 5a (Example 3).
The BIAcore systems exploit the phenomenon of Surface Plasmon Resonance (SPR) to monitor interactions between molecules in real time. Briefly, SPR phenomenon occurs in thin conducting films at an interface between media of different refractive index. In BIAcore systems, the media are the glass of the sensorchip and the sample solution, and the conducting film is a thin layer of gold on the sensorchip surface. BIAcore monitors the interaction between two molecules, one attached to the sensor surface, called ligand, and the other one free in solution, and called analyte.
An anti-c-Myc antibody (9E10, sc-40, Santa Cruz Technology) was immobilized on a sensorchip CM5 (#29149604, Cytiva). In details, the antibody was diluted at a concentration of 50 μg/ml in 10 mM acetate buffer at pH 4.5, and injected over the surface of the sensorchip. In details, the dextran matrix on the sensorchip surface was first activated with a mixture of […] (EDC) and N-hydroxysuccinimide (NHS) to give reactive succinimide esters. Anti-Myc antibodies were then passed over the surface and the esters reacted spontaneously with uncharged amino groups to covalently link the ligand to the dextran. Then, the surface was deactivated by ethanolamine-HCl.
Once the antibody was immobilized, the receptor was captured on the surface of the sensorchip. This procedure allowed the immobilization of the ligand of interest in an oriented way. In particular, C5AR1-cMyc (TP303784, OriGene) at a concentration of 20 μg/ml in Running Buffer (50 mM HEPES buffer, pH 7.0 containing 0.01% CHS, 0.1% CHAPS, and 0.33 mM of lipids) was injected onto the sensorchip prepared above with a flow rate of 5 μI/min.
In details, 5 μM C5a (A144, Complement Technologies) in Running Buffer was injected on C5aR1 surface of sensorchip prepared in Example 1a).
To first evaluate a direct binding of Paclitaxel and C5aR1, the compound was injected on the C5aR1 surface of the sensorchip prepared in Example 1a) at a concentration of 300 μM in Running Buffer.
Running Buffer at different concentrations (from 4.06 to 37.5 μM), injected on the sensorchip for 4 minutes and allowed to dissociate for 5 minutes, flowing Running Buffer without Paclitaxel. In this way, the kinetic constant was evaluated as a function of time.
Also, the affinity value at equilibrium of Paclitaxel/Myc-05aR1 interaction was determined by measuring the steady-state binding levels, through a Scatchard analysis of the RU values at equilibrium.

CC(=O)O[C@H]1C(=O)[C@@]2(C)[C@H]([C@H](OC(=O)c3ccccc3)[C@]3(O)C[C@H](OC(=O)[C@H](O)[C@@H](NC(=O)c4ccccc4)c4ccccc4)C(C)=C1C3(C)C)[C@]1(OC(C)=O)CO[C@@H]1C[C@@H]2O [Paclitaxel]
IL-8 relative mRNA expression (F11 hybridoma cells): increase IL-8 expression levels | Paclitaxel bound to immobilised C5aR1, resonance units ([1]; 300 μM in Running Buffer): 300 RU | Kd ([1]; 4.06 to 37.5 μM, 4 minutes injection, 5 minutes dissociation, read-out: Kd value (kinetic evaluation)): 0.67 µM | Kd ([1]; steady-state RU as a function of analyte concentration, read-out: affinity constant at equilibrium (steady-state binding levels, Scatchard analysis)): 0.525 µM

B1: C5a: anaphylatoxin, pro-inflammatory polypeptide, the natural ligand of the receptor C5aR1 (protein, UniProt P01031 678-751, looked up)
C5a anaphylatoxin: TLQKKIEEIAAKYKHSVVKKCCYDGACVNNDETCEQRAARISLGPRCIKAFTECCVVASQLRANISHKDMQLGR
modifications: C5a anaphylatoxin
notes: anaphylatoxin, pro-inflammatory polypeptide, the natural ligand of the receptor C5aR1
IL-8 relative mRNA expression (F11 hybridoma cells): increases IL-8 expression levels | binding to immobilised C5aR1 ([1]; 5 μM in Running Buffer): can bind
